Source: US7629150B2, “Transformed cell harboring DNA or RNA encoding sugar chain synthesizing agent having β1,3-N-acetylglucosaminyltransferase activity” (Kyowa Hakko Kirin Co., Ltd., priority 2000, dated 2009)

How the values were obtained:
[1] = system: pCXN2-G6-transfected HCT-15 cell; experiment: Sugar chain synthesis inhibitors: FACS analysis with OSK28 of poly-N-acetyllactosamine sugar chains; format: cell-based, human; details: cultured for 5 days
Experimental: The HCT-15 cells transfected with pCXN2-G6 or pCXN2 prepared in the above (2) (each 5×10^6 cells) were washed by using 3 ml of a phosphate buffer PBS (8 g/l NaCl, 0.2 g/l KCl, 1.15 g/l Na2HPO4 (anhydrous) and 0.2 g/l KH2PO4).
The cells (about 1×10^6 cells) described above were put into a microtube (1.5 ml, manufactured by Eppendorf) and the cells were collected by centrifugation (550×g, 7 minutes).
The cells were washed with 0.9 ml of 0.1% sodium azide-containing PBS (A-PBS: 8 g/l NaCl, 0.2 g/l KCl, 1.15 g/l Na2HPO4 (anhydrous), 0.2 g/l KH2PO4 and 0.1% sodium azide), and then the washed cells were suspended in 100 μl of an antibody (OSK28) capable of recognizing a poly-N-acetyllactosamine sugar chain diluted with A-PBS to give a concentration of 10 μg/ml (20 times dilution of the following purified antibody) and allowed to react at 4° C. for 30 minutes in the dark.
After the reaction, the cells are washed twice with 3 ml of A-PBS, suspended in 100 μl of an FITC-labeled anti-human IgM antibody [manufactured by Medical & Biological Laboratories (MBL)] diluted to 10 μg/ml, and then allowed to react at 4° C. for 1 hour. After the reaction, the cells were washed twice with 3 ml of A-PBS, suspended in 200 μl of PBS containing 0.5% p-formaldehyde and then immobilized. The cells were analyzed by using FACS (Epics Elite Flow Cytometer). […]

G6sec2 [2] = target: T1, G6sec2 (Homo sapiens, UniProt Q9BYG0); experiment: β1,3-N-acetylglucosaminyltransferase activity using unlabeled oligosaccharides as substrates (HPAE/PAD); format: biochemical
T1 construct: made in house; host or cells: Sf21 insect cells infected with pVL1393-F2G6sec2-derived recombinant baculovirus
T1 sequence (Q9BYG0 39-378): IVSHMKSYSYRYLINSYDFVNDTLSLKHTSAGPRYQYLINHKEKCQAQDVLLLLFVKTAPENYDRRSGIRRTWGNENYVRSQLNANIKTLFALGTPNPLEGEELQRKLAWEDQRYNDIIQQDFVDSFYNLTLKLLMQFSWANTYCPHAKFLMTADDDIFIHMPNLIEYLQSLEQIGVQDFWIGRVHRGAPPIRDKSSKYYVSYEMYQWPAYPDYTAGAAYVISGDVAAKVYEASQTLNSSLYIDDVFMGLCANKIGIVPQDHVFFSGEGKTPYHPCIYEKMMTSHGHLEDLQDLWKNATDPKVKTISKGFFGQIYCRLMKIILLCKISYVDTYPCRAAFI
Experimental: The glycosyltransferase reaction was carried out as follows. The reaction was carried out at 37° C. for 16 hours in 40 μl of an assay solution [50 mmol/l MOPS (pH 7.5), 5 mmol/l UDP-GlcNAc (manufactured by SIGMA), 5 mmol/l MnCl2, 10 mmol/l sugar chain substrate, a purified enzyme solution (G6sec2)]. Next, the mixture was treated at 100° C. for 5 minutes and then centrifuged at 10,000×g for 20 minutes to obtain a supernatant, and a part thereof was analyzed using HPAE/PAD ([…]; manufactured by DIONEX). The method was specifically carried out according to a conventional method [Anal. Biochem., 189, 151-162 (1990), J. Biol. Chem., 273, 433-440 (1998)].
As a purified enzyme (G6sec2), […] of the enzyme obtained in the above (2) was used. As substrates, unlabeled oligosaccharides [lactose (Galβ1-4Glc) and LNnT] were used.
After the reaction on each substrate using an assay solution containing UDP-GlcNAc (saccharide donor) and an assay solution containing no donor, analysis was carried out using HPAE/PAD and peaks appeared only in the assay solution containing UDP-GlcNAc were defined as products. The product was identified using coincidence of its elution time with that of standard sugar chain as the index. As standard sugar chains, GlcNAcβ1-3Galβ1,4Glc and GlcNAcβ1-3Galβ1,4GlcNAcβ1-3Galβ1-4Glc were used.

G6sec2 [3] = target: T1, G6sec2; experiment: β1,3-N-acetylglucosaminyltransferase activity using glycolipids as substrates (purified enzyme); format: biochemical; details: for β1,3-N-acetylglucosaminyltransferase activity for the glycolipid / conversion efficiency: glycolipid substrate; for conversion efficiency: purified G6sec2 10 μl, 37° C., 16 hours
Experimental: Using glycolipids as the substrate, β1,3-N-acetylglucosaminyltransferase activity of the G6 polypeptide was measured according to known methods [FEBS, 462, 289 (1999), J. Biol. Chem., 269, 14730-14737 (1994), J. Biol. Chem., 267, 23507 (1992), J. Biol. Chem., 267, 2994 (1992)]. Specifically, the reaction was carried out at 37° C. for 16 hours in 20 μl of a reaction solution [150 mmol/l sodium cacodylate (pH 7.2), 10 mmol/l UDP-GlcNAc (manufactured by SIGMA), 480 μmol/l UDP—[^14C]GlcNAc (manufactured by Amersham), 0.4% Triton CF-54, 10 mmol/l MnCl2, […] glycolipid, purified enzyme (G6sec2)]. As the purified enzyme (G6sec2), 10 μl of the enzyme obtained in the above (2) was used. As glycolipids, lactosylceramide, paragloboside, galactosylceramide (Type I) and galactosylceramide (Type II) were used. Paragloboside was obtained from Yasunori Kushi at Tokyo Medical and Dental University. Other glycolipids were purchased from SIGMA. After completion of the reaction, 200 μl of 0.1 mol/l KCl was added and lightly centrifuged to obtain the supernatant. The supernatant was passed through Sep-Pak plus C18 Cartridge (manufactured by Waters) which had been washed once with 10 ml of methanol and equilibrated by washing twice with 10 ml of 0.1 mol/l KCl to adsorb the glycolipid in the supernatant onto the cartridge. After washing the cartridge twice with 10 ml of pure water for HPLC, the adsorbed glycolipid was eluted with 5 ml of methanol. After concentrating the eluate to about 10 μl using a vacuum dryer, the concentrated solution was plotted on a TLC plate (HPTLC plate Silica gel 60: manufactured by MERCK) and developed using a developing solvent comprising a composition of chloroform:methanol:water (containing 0.2% CaCl2)=65:35:8. After the development was carried out to a position 5 mm from the upper end of the TLC plate, the plate was dried and then the radioactivity incorporated into the glycolipid was measured using Bio Image Analyzer BAS 2000 (manufactured by Fuji Photo Film).

G6 polypeptide = target: T2, G6 polypeptide (Homo sapiens, UniProt Q9BYG0); experiment: β1,3-N-acetylglucosaminyltransferase activity of cell extract of Namalwa cells transfected with pAMo-G6, glycolipid substrates; format: biochemical; details: for conversion efficiency into the product: 250 μmol/l glycolipid, 37° C., 16 hours
T2 construct: In order to obtain a DNA encoding the full-length G6 polypeptide, PCR was carried out; expressed in transfected cells; Triton X-100 cell extract
T2 sequence (Q9BYG0 1-378): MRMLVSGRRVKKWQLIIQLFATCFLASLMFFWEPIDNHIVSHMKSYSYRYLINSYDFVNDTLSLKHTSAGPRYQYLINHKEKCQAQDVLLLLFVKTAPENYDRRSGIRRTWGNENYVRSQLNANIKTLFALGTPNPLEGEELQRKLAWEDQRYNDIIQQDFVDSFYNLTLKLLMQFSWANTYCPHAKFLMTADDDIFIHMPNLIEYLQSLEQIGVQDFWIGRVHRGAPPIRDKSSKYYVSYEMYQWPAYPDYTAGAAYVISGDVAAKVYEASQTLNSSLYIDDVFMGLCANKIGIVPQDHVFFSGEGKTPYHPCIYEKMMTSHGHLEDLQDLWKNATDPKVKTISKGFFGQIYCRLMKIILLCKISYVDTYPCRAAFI
Experimental: β1,3-N-Acetylglucosaminyltransferase activity of G6 polypeptide was measured by using glycolipids as substrates according to known methods [FEBS, 462, 289 (1999), J. Biol. Chem., 269, 14730-14737 (1994), J. Biol. Chem., 267, 23507 (1992), J. Biol. Chem., 267, 2994 (1992)]. Specifically, the reaction was carried out at 37° C. for 16 hours in 20 μl of reaction solution [150 mmol/l sodium cacodylate (pH 7.2), 10 mmol/l UDP-GlcNAc (manufactured by SIGMA), 480 μmol/l UDP—[^14C]GlcNAc (manufactured by Amersham), 0.4% Triton CF-54, 10 mmol/l MnCl2, 250 μmol/l glycolipid, the cell extract prepared in the above (1) (20 μg as protein)]. As glycolipids, lactosylceramide (manufactured by SIGMA) and paragloboside (obtained from Yasunori Kushi at Tokyo Medical and Dental University) were used. After completion of the reaction, 200 μl of 0.1 mol/l KCl was added and lightly centrifuged to obtain the supernatant. The supernatant was passed through Sep-Pak plus C18 Cartridge (Waters), which had been washed once with 10 ml of methanol and equilibrated twice with 10 ml of 0.1 mol/l KCl, to adsorb the glycolipid in the supernatant onto the cartridge. After washing the cartridge twice with 10 ml of pure water for HPLC, the adsorbed glycolipid was eluted with 5 ml of methanol. After concentrating the eluate to about 10 μl by using a vacuum dryer, the concentrated solution was spotted on a TLC plate (HPTLC plate Silica gel 60: manufactured by MERCK) and developed using a developing solvent comprising a composition of chloroform:methanol:water (containing 0.2% CaCl2)=65:35:8. After the development was carried out to a position 5 mm from the upper end of the TLC plate, the plate was dried and then the radioactivity incorporated into the glycolipid was measured using Bio Image Analyzer BAS 2000 (manufactured by Fuji Photo Film).

O[C@H]1[C@H]2[C@H](O)CCCN2C[C@H]1O [swainsonine]
reactivity to OSK28 antibody ([1]; 10 μg/ml): reduced

OC[C@H]1O[C@@H](O[C@H]2[C@H](O)[C@@H](O)C(O)O[C@@H]2CO)[C@H](O)[C@@H](O)[C@H]1O (stereo partly drawn) [lactose]
conversion efficiency into the product (G6sec2 [2]; unlabeled oligosaccharide 10 mmol/l, 37° C., 16 hours): 0.30% | relative activity, LNnT as substrate defined as 100% (G6sec2 [2]; unlabeled oligosaccharides): 62.5%

CC(=O)N[C@H]1[C@@H](OCc2ccccc2)O[C@H](CO)[C@H](O)[C@@H]1O [benzyl-α-GalNAc]
reactivity to OSK28 antibody in comparison with absence of inhibitor ([1]; 4 mmol/l): sharply reduced

galactosylceramide (Type II)
β1,3-N-acetylglucosaminyltransferase activity for the glycolipid (G6sec2 [3]; purified G6sec2): did not show activity

galactosylceramide (Type I)
β1,3-N-acetylglucosaminyltransferase activity for the glycolipid (G6sec2 [3]; purified G6sec2): did not show activity

paragloboside
conversion efficiency into the product (G6 polypeptide): 0.126% | activity relative to lactosylceramide as substrate defined as 100% (G6 polypeptide; glycolipid substrates): 96% | conversion efficiency (G6sec2 [3]): 25.2% | activity relative to lactosylceramide as substrate defined as 100% (G6sec2 [3]; glycolipid substrates, purified G6sec2): 468%

lactosylceramide
conversion efficiency into the product (G6 polypeptide): 0.125% | conversion efficiency (G6sec2 [3]): 5.39%
